Several values for one entry are separate records, joined by “and”; a condition that tells them apart may be missing. Equal entries are not always repeated.
Tests used:
human IR (hIR) = target: T1, human IR (hIR) (Homo sapiens, UniProt P06213); experiment: TR-FRET kinase assay of purified hIR; format: biochemical; conditions: activated hIR 0.5 nM, 10 μM ATP, values given as pIC50 category
T1 construct: containing amino acid residues 979-1382 of human IR; made in house; host or cells: Sf9 cells (baculovirus), same process as hIGF1R
Method: (§1) Time Resolved Fluorescence Resonance Energy Transfer (TR-FRET) assays were carried out on the exemplified compounds as follows:
(§2) Purity is determined by HPLC. The calculated molecular mass of the peptide is 2216 dalton. Tyrosine phosphorylation by human IGF1R (hIGF1R) or human IR (hIR) occurs as indicated (Y*) in the peptide sequence described. Solid peptide sample is dissolved to approximately 1 mM in DMSO, aliquoted, and stored at −20° C. until use. True peptide concentration is determined by amino acid analysis.
hIR: GST-rTEV-IR(979-1382) containing amino acid residues 979-1382 of human IR (as annotated by NCBI accession number NP_000199) is expressed and purified by the same process as hIGF1R. […] Samples, in 25 mM Tris-HCl, 250 mM NaCl, 5% glycerol, 1 mM DTT, pH 7.5, are stored at −80° C. until use.
(§3) hIR: Activation of GST-rTEV-IGF-1R(957-1367) is achieved by a 5 minute incubation of hIR (2.7 μM final) with 2 mM ATP in 100 mM HEPES, 10 mM MgCL2, 0.1 mg/ml BSA, at room temperature. Autophosphorylation is stopped by addition of EDTA (to 100 mM final). Aliquoted samples are flash frozen in liquid nitrogen and stored at −80° C. until use.
(§4) Assays are performed in 384-well (Greiner, Catalog No. 784076) microtiter plates. Reaction buffer (50 mM HEPES buffer, pH 7.5; 10 mM MgCL2; 3 mM DTT; 1 mM CHAPS; 0.1 mg/ml BSA) for peptide phosphorylation (10 μl volume) contained, in final concentrations, 500 nM biotinylated peptide substrate; 10 μM ATP; and purified, activated hIGF1R or hIR (0.5 nM). Compounds, titrated in DMSO, are evaluated at eleven concentrations ranging from 50 μM to 0.2 nM. […] Reactions are incubated for 1 hour at room temperature and are stopped by a 5 μl addition of EDTA (to 33 mM). A further addition of 5 μl detection reagents (for final 7 nM Streptavidin-APC (Perkin Elmer #CR^130-150), 1 nM Europium-labeled anti-phosphotyrosine monoclonal antibody (PerkinElmer #AD0067), added in reaction buffer (without DTT), is required for signal generation. After 30 minutes, signal is read on PerkinElmer Viewlux microplate imager or Wallac Victor fluorometer.
(§5) The data for compound concentration responses were plotted as % Inhibition, calculated with the data reduction formula 100*(1-[(U1-C2)/(C1-C2)]), versus concentration of compound, where • U is the unknown value, • C1 is the average control value obtained for DMSO only, and • C2 is the average control value obtained for reactions stopped with EDTA at • t=0.
(§6) Data were fitted to the curve described by: y=((Vmax*x)/(K+x)) where • Vmax is the upper asymptote and • K is the IC50.

[1] = target: T2, NIH-3T3 cells overexpressing human IGF-1R (Homo sapiens, UniProt P08069); experiment: IGF-1R cellular autophosphorylation (DELFIA); format: cell-based
T2 construct: expressed in transfected cells; host or cells: NIH-3T3 (mouse fibroblasts)
Method: NIH-3T3 cells overexpressing human IGF-1R or IR were plated in 96-well plates (10,000 cells/well) in culture media containing 10% fetal bovine serum and incubated at 37° C. in a 5% CO2 incubator. Twenty four hours post-plating, cells were treated with different concentrations of test compounds ranging from 30 uM to 1.5 nM. Two hours after compound addition, cells were stimulated with either human IGF-1 (30 ng/ml) or insulin (3 ug/ml) for 15 minutes. Cell lysates are analyzed for phosphorylated receptors using dissociation enhanced lanthanide fluor-immuno assay (DELFIA) with anti-IGF-1R (MAB391, R&D Systems, Minneapolis, Minn.) or anti-IRβ (sc-711, Santa Cruz Biotechnology, Santa Cruz, Calif.) capture antibody and europium-labeled anti-pTyr antibody (Eu-N1 PT66, Perkin Elmer, Waltham, Mass.) for detection. The fluorescence signal for cells treated with compounds was expressed as percent relative to 100% stimulation (IGF-1 or insulin stimulated signal).

human IGF1R (hIGF1R) = target: T3, human IGF1R (hIGF1R) (Homo sapiens, UniProt P08069); experiment: TR-FRET kinase assay of purified hIGF1R; format: biochemical; conditions: activated hIGF1R 0.5 nM, 10 μM ATP, values given as pIC50 category, read-out: IGF-1R pIC50 (converted)
T3 construct: containing amino acid residues 957-1367 of human IGF1R; made in house; host or cells: Sf9 cells (baculovirus)
Method: as §1, §2
hIGF1R: GST-rTEV-IGF-1R(957-1367) containing amino acid residues 957-1367 of human IGF1R (as annotated by National Center for Biotechnology Information (NCBI) accession number NP_000866) is purified from a baculovirus expression system in Sf9 cells using Glutathione Sepharose 4FF column chromatography followed by Sephadex-200 size exclusion column chromatography. […] Samples, in 25 mM Tris-HCl, 250 mM NaCl, 5% glycerol, 1 mM DTT, pH 7.5, are stored at −80° C. until use.
as §3, with “hIGF1R: Activation” for “hIR: Activation”, “a 4” for “a 5”, “of hIGF1R” for “of hIR”, “in 50” for “in 100”, “HEPES, 20” for “HEPES, 10”
as §4, §5, §6

ALK = ALK (Homo sapiens, UniProt Q9UM73); experiment: ALK enzyme assay (HTRF); format: biochemical; conditions: 0.25 nM ALK, 15.0 μM ATP, values given as pIC50 category
Method: The method measures the ability of the isolated enzyme to catalyse the transfer of the gamma-phosphate from ATP onto the tyrosine residue of a biotinylated synthetic peptide. The extent of tyrosine phosphorylation was measured using an anti-phosphotyrosine antibody, and quantified by homogenous time-resolved fluorescence (HTRF) assay purchased from CisBio (62TK0PEJ).
Reactions were performed in black 384-well polystyrene low volume plates in a final volume of 5 μl.
The reactions were then started by adding the substrate mix. The reactions were allowed to proceed for 120 minutes at 20° C. The reactions were then terminated by the addition of 5 μl HTRF detection mix to each well. The final concentrations of the detection reagents were: 50 mM HEPES (pH7.0); 0.1% BSA; 0.8 M KF; 20 mM EDTA; 1 mM CHAPS; TK-antibody Europium Cryptate; and 41 nM streptavidin-XL665. Assay plates were left unsealed, stacked and incubated at 20° for 60 minutes. Quantification of activity was achieved by counting in an Envision Counter (PerkinElmer).
Compounds under analysis were dissolved in Me2SO to 1.0 mM and serially diluted 1 to 3 with Me2SO through twelve dilutions. 0.05 μl of each concentration was transferred to the corresponding well of an assay plate. This creates a final compound concentration range from 0.00017 to 10 μM.
The data for dose responses were plotted as % Inhibition calculated with the data reduction formula 100*(1-(U1-C2)/(C1-C2)) versus concentration of compound where U is the unknown value, C1 is the average control value obtained for 1% DMSO, and C2 is the average control value obtained for 0.1 M EDTA. Data were fitted with a curve described by:
[formula] where A is the minimum y, B is the maximum y concentration [M], D is the slope factor, and x is the log10 of the compound.

T2 sequence (P08069 31-1367): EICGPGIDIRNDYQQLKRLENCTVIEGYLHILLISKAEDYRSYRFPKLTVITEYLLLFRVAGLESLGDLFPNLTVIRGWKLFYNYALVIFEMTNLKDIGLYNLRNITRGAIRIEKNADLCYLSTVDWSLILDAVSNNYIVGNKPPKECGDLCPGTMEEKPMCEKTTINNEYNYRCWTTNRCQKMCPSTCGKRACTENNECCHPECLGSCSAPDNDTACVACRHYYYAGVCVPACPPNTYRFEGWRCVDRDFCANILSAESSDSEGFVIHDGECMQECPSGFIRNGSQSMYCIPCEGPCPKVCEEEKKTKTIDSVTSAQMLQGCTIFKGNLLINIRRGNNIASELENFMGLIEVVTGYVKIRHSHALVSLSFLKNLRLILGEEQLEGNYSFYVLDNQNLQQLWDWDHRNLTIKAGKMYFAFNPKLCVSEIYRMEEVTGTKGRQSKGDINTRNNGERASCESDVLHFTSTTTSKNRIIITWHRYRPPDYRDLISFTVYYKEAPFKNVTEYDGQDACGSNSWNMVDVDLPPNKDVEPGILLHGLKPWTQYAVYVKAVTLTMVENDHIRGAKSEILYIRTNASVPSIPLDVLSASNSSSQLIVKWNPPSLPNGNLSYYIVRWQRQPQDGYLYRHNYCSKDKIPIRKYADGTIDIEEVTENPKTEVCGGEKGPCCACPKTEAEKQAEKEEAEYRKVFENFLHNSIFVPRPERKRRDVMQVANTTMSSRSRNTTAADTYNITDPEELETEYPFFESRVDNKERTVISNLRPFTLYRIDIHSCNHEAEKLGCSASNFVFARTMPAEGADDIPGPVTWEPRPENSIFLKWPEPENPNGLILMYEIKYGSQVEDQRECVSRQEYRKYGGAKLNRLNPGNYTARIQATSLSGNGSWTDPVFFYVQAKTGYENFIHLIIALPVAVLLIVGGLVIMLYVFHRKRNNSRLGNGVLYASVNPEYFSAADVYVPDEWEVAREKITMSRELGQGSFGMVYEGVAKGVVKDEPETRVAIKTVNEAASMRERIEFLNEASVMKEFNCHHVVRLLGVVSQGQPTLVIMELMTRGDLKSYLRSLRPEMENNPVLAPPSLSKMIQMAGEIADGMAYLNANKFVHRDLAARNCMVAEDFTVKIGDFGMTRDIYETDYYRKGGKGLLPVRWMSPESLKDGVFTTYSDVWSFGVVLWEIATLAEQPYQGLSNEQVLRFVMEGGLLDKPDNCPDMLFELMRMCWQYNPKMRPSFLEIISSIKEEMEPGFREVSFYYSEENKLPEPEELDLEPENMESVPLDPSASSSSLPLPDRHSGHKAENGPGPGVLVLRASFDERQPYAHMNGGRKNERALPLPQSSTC
Sequence of ALK (Q9UM73 19-1620): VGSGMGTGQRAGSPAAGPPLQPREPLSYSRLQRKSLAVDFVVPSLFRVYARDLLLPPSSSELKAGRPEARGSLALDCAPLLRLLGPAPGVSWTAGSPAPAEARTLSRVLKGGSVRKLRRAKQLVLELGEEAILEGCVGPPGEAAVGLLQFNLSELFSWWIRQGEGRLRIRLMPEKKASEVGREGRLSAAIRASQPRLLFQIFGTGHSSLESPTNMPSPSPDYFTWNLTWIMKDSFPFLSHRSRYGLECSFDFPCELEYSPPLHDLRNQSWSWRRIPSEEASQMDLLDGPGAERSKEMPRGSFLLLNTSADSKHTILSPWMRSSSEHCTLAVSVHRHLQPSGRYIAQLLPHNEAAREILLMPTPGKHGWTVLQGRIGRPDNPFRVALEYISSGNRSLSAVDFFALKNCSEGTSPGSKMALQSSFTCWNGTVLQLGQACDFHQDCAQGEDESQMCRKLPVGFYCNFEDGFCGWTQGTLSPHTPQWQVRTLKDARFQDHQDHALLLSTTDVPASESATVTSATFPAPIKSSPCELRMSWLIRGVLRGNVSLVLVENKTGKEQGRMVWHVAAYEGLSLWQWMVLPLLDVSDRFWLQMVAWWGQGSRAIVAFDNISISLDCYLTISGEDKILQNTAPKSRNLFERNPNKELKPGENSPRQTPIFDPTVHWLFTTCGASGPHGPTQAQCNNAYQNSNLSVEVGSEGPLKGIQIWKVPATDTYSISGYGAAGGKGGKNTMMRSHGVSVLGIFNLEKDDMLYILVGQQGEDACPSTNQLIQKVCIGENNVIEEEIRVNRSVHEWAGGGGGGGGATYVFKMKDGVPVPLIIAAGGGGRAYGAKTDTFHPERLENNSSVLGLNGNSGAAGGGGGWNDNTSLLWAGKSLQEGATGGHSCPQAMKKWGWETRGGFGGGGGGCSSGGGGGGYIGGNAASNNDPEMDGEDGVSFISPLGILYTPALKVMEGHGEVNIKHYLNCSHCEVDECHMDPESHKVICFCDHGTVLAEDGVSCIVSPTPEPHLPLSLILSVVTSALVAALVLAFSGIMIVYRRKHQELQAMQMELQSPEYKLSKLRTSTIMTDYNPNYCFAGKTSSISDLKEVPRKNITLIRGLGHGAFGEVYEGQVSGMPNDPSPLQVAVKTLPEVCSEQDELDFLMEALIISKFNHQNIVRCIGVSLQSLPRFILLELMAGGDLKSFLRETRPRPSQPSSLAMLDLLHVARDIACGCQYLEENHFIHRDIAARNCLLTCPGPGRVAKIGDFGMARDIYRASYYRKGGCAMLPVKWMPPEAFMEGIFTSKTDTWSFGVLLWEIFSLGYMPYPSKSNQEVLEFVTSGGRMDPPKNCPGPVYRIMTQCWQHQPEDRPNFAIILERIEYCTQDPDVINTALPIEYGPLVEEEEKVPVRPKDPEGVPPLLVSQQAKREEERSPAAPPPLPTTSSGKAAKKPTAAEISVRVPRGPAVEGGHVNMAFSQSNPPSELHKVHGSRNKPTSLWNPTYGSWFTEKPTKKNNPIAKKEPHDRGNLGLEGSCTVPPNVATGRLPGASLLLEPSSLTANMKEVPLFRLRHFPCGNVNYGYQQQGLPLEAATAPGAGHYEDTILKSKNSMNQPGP
T3 sequence (P08069 957-1367): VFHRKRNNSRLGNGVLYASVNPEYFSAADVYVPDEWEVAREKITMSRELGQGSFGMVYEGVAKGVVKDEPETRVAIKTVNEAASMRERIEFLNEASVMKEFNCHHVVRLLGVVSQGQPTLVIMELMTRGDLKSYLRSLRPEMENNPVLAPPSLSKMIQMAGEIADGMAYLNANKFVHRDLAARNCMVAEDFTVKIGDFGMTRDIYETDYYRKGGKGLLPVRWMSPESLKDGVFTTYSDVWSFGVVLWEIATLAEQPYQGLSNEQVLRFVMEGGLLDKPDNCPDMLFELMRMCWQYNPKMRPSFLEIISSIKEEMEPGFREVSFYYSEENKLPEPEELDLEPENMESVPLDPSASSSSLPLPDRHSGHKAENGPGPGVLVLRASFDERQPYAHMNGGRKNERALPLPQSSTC
T1 sequence (P06213 979-1382): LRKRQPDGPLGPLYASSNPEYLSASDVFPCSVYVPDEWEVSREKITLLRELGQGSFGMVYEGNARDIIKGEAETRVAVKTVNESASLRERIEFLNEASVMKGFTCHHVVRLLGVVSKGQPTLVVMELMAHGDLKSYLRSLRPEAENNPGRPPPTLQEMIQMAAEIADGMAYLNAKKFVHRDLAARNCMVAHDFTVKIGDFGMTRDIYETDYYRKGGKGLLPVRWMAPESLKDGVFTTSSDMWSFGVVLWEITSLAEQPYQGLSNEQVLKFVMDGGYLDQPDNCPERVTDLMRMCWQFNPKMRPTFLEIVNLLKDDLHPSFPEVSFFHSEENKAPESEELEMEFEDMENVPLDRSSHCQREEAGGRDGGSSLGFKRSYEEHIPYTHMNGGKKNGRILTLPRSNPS

Row | IC50 (human IR (hIR)) | IC50 [1] | IC50 (human IGF1R (hIGF1R)) | IC50 (ALK) | Compound
1 | 0.251 to 1 nM | < 100 nM | 1.26 to 3.98 nM |  | CCCN1CCN(c2ccc(Nc3nc(Nc4ccccc4C(N)=O)c4cc[nH]c4n3)c(OC)c2)CC1 [Example 8, 2-[(2-{[2-(methyloxy)-4-(4-propyl-1-piperazinyl)phenyl]amino}-1H-pyrrolo[2,3-d]pyrimidin-4-yl)amino]benzamide]
2 |  | 100 to 500 nM | 1.26 to 3.98 nM | 1.26 to 3.98 nM | CCCN1CCC=C(c2ccc(Nc3nc(Nc4cccc(F)c4C(N)=O)c4cc[nH]c4n3)c(C)c2)C1 [Example 40, 2-fluoro-6-[(2-{[2-methyl-4-(1-propyl-1,2,5,6-tetrahydro-3-pyridinyl)phenyl]amino}-1H-pyrrolo[2,3-d]pyrimidin-4-yl)amino]benzamide]
3 | 0.251 to 1 nM | < 100 nM |  | 0.251 to 1 nM | COc1cc(C2CCCN(C)C2)ccc1Nc1nc(Nc2ccc(F)cc2C(N)=O)c2cc[nH]c2n1 (stereo not drawn) [Example 56, 5-fluoro-2-[(2-{[2-(methyloxy)-4-(1-methyl-3-piperidinyl)phenyl]amino}-1H-pyrrolo[2,3-d]pyrimidin-4-yl)amino]benzamide]
4 | 5.01 to 158 nM |  | 5.01 to 200 nM | 5.01 to 200 nM | CNC(=O)c1c(F)cccc1Nc1nc(Nc2cc3c(cc2OC)CCN3C(=O)[C@@H]2CCCN2C)nc2[nH]ccc12 [Example 128, 2-fluoro-N-methyl-6-[(2-{[5-(methyloxy)-1-(1-methyl-L-prolyl)-2,3-dihydro-1H-indol-6-yl]amino}-1H-pyrrolo[2,3-d]pyrimidin-4-yl)amino]benzamide]
5 | 5.01 to 158 nM |  | 5.01 to 200 nM | 5.01 to 200 nM | CNC(=O)c1c(F)cccc1Nc1nc(Nc2cc3c(cc2OC)CCN3C(=O)[C@H]2CCCN2C)nc2[nH]ccc12 [Example 129, 2-fluoro-N-methyl-6-[(2-{[5-(methyloxy)-1-(1-methyl-D-prolyl)-2,3-dihydro-1H-indol-6-yl]amino}-1H-pyrrolo[2,3-d]pyrimidin-4-yl)amino]benzamide]
6 | 5.01 to 158 nM |  | 5.01 to 200 nM | 5.01 to 200 nM | CNC(=O)c1c(F)cccc1Nc1nc(Nc2ccc3c(c2)N(C(=O)CN(C)C)CC3)nc2[nH]ccc12 [Example 130, 2-[(2-{[1-(N,N-dimethylglycyl)-2,3-dihydro-1H-indol-6-yl]amino}-1H-pyrrolo[2,3-d]pyrimidin-4-yl)amino]-6-fluoro-N-methylbenzamide]
7 | 1.26 to 3.98 nM |  | 1.26 to 3.98 nM | 1.26 to 3.98 nM | CNC(=O)c1c(F)cccc1Nc1nc(Nc2cc3c(cc2Cl)CCN3C(=O)CN(C)C)nc2[nH]ccc12 [Example 131, 2-[(2-{[5-chloro-1-(N,N-dimethylglycyl)-2,3-dihydro-1H-indol-6-yl]amino}-1H-pyrrolo[2,3-d]pyrimidin-4-yl)amino]-6-fluoro-N-methylbenzamide]
8 | 1.26 to 3.98 nM |  | 1.26 to 3.98 nM | 1.26 to 3.98 nM | CCOc1cc2c(cc1Nc1nc(Nc3cccc(F)c3C(=O)NC)c3cc[nH]c3n1)N(C(=O)CN(C)C)CCC2 [Example 133, 2-[(2-{[1-(N,N-dimethylglycyl)-6-(ethyloxy)-1,2,3,4-tetrahydro-7-quinolinyl]amino}-1H-pyrrolo[2,3-d]pyrimidin-4-yl)amino]-6-fluoro-N-methylbenzamide]
9 | 1.26 to 3.98 nM |  | 1.26 to 3.98 nM | 1.26 to 3.98 nM and 5.01 to 200 nM | CNC(=O)c1c(F)cccc1Nc1nc(Nc2cc3c(cc2OC)CCN3C(=O)CN(C)CCOC)nc2[nH]ccc12 [Example 169, 2-fluoro-N-methyl-6-[(2-{[1-{N-methyl-N-[2-(methyloxy)ethyl]glycyl}-5-(methyloxy)-2,3-dihydro-1H-indol-6-yl]amino}-1H-pyrrolo[2,3-d]pyrimidin-4-yl)amino]benzamide]
10 | 0.251 to 1 nM |  | 0.251 to 1 nM | 1.26 to 3.98 nM | COCCN(C)CC(=O)N1CCc2cc(OC)c(Nc3nc(Nc4cccc(F)c4C(N)=O)c4cc[nH]c4n3)cc21 [Example 170, 2-fluoro-6-[(2-{[1-{N-methyl-N-[2-(methyloxy)ethyl]glycyl}-5-(methyloxy)-2,3-dihydro-1H-indol-6-yl]amino}-1H-pyrrolo[2,3-d]pyrimidin-4-yl)amino]benzamide]
11 | 0.251 to 1 nM |  | 0.251 to 1 nM | 0.251 to 1 nM | COc1cc2c(cc1Nc1nc(Nc3cccc4c3C(=O)NC4)c3cc[nH]c3n1)N(C(=O)CN1CCCC1)CCC2 [Example 201, 7-[(2-{[6-(methyloxy)-1-(1-pyrrolidinylacetyl)-1,2,3,4-tetrahydro-7-quinolinyl]amino}-1H-pyrrolo[2,3-d]pyrimidin-4-yl)amino]-2,3-dihydro-1H-isoindol-1-one]
12 | 1.26 to 3.98 nM |  | 5.01 to 200 nM | 0.251 to 1 nM | CNC(=O)c1c(F)cccc1Nc1nc(Nc2cc3c(cc2OC)CCN(CCF)C3)nc2[nH]ccc12 [Example 234, 2-fluoro-6-[(2-{[2-(2-fluoroethyl)-6-(methyloxy)-1,2,3,4-tetrahydro-7-isoquinolinyl]amino}-1H-pyrrolo[2,3-d]pyrimidin-4-yl)amino]-N-methylbenzamide]

Source: patent US7981903B2, “2-[2-{phenylamino}-1H-pyrrolo[2,3-D]pyrimidin-4-yl)amino] benzamide derivatives as IGF-1R inhibitors for the treatment of cancer” (GlaxoSmithKline LLC, priority 2007, dated 2011)
